This is an account of results in patent publication US20250179078A1, “INHIBITORS OF NLRP3” (PTC THERAPEUTICS, INC., priority 2022, published 2025).

T1 sequence (Q96P20 whole entry): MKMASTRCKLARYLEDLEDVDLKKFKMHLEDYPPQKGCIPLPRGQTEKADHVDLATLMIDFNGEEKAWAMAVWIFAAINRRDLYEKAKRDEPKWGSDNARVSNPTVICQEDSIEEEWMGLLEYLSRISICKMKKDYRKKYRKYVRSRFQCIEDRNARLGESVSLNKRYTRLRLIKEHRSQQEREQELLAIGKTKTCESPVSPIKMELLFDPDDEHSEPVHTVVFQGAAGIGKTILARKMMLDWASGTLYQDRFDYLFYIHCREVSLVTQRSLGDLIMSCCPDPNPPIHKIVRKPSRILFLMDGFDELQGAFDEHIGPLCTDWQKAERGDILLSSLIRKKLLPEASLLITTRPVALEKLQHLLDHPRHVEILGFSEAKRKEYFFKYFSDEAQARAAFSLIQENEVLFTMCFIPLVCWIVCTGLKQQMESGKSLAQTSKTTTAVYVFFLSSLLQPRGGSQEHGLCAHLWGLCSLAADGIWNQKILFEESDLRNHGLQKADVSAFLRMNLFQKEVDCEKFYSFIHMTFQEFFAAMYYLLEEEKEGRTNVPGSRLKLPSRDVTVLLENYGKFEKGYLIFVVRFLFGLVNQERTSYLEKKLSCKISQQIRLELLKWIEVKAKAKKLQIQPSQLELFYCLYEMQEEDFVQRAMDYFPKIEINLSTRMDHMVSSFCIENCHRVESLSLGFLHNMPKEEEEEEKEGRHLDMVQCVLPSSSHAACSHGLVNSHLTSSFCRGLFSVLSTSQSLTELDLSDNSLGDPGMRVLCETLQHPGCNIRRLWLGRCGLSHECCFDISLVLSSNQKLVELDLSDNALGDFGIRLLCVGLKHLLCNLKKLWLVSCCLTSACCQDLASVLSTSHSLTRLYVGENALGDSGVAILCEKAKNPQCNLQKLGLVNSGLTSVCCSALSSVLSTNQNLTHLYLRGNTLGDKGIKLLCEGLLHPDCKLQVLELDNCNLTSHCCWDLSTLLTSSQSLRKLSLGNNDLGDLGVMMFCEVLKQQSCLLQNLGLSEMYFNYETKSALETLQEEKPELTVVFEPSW

This test has as its target T1, NLRP3 (Homo sapiens, UniProt Q96P20).
T1 construct: host or cells: THP-1 cells differentiated with PMA
Briefly: IL-1β Secretion Assay (NLRP3-dependent IL1β secretion in THP1 cells). It is filed as cell-based. Particulars: PMA-differentiated THP-1 cells; compounds incubated 20 h; 2.5 μM Nigericin 3 h; HTRF IL-1β readout; read-out: IC50 IL-1β Inhibition. In outline: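 THP-1 cells differentiated with 100 ng/mL PMA for 24 h, then given compound (7-point 3-fold series, 1:200 from DMSO) for 20 h in RPMI+5% FBS. NLRP3 activated with 2.5 μM nigericin for 3 h; secreted IL-1β measured by HTRF; IC50 from logistic fit of % inhibition.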
On the technique in general: Time-resolved FRET reads energy transfer from a long-lived donor to a nearby acceptor.
`CN1C[C@H](F)C[C@@H](Nc2nnc(-c3ccc(Cl)cc3OC(F)F)c3cncn23)C1` [Compound 193, 1-[4-chloro-2-(difluoromethoxy)phenyl]-N-[(3R,5R)-5-fluoro-1-methylpiperidin-3-yl]imidazo[1,5-d][1,2,4]triazin-4-amine]: the IC50 (as a rule, the concentration at which inhibition is half-maximal) was in the range of 1 to 10 nM.

Turning to `C[C@@H](O)CNc1nnc(-c2ccc(C(F)(F)F)cc2OC(F)F)c2cccn12` [Compound 63, (2R)-1-({1-[2-(difluoromethoxy)-4-(trifluoromethyl)phenyl]pyrrolo[1,2-d][1,2,4]triazin-4-yl}amino)propan-2-ol], the IC50 is 1 to 10 nM.

Regarding `CCN1CCC[C@@H](Nc2nnc(-c3ccc(Cl)cc3)c3cc(C)nn23)C1` [Compound 377, 4-(4-chlorophenyl)-N-[(3R)-1-ethylpiperidin-3-yl]-2-methylpyrazolo[1,5-d][1,2,4]triazin-7-amine], the IC50 lay in the range of 1 to 10 nM.

On to `Cc1cc(C(F)(F)F)cc(OC(F)F)c1-c1nnc(N[C@@H]2CCCN(C)C2)n2cccc12` [Compound 49, 1-[2-(difluoromethoxy)-6-methyl-4-(trifluoromethyl)phenyl]-N-[(3R)-1-methylpiperidin-3-yl]pyrrolo[1,2-d][1,2,4]triazin-4-amine], for which the IC50 is 10 to 100 nM.

`O=C1NCCC1Nc1nnc(-c2ccc(OC(F)F)cc2OC(F)(F)F)c2cncn12` (stereo not drawn) [Compound 260, 3-({1-[4-(difluoromethoxy)-2-(trifluoromethoxy)phenyl]imidazo[1,5-d][1,2,4]triazin-4-yl}amino)pyrrolidin-2-one]: the IC50 was 1 to 10 nM.

`CC(Nc1nnc(-c2ccc(OC(F)F)cc2OC(F)(F)F)c2cncn12)c1cccc(O)c1` (stereo not drawn) [Compound 259]: the IC50 was under 1 nM.

With `CCN1CCC[C@@H](Nc2nnc(-c3ccc(C(F)(F)F)cc3OC3CC3)c3cccn23)C1` [Compound 178, 1-[2-(cyclopropyloxy)-4-(trifluoromethyl)phenyl]-N-[(3R)-1-ethylpiperidin-3-yl]pyrrolo[1,2-d][1,2,4]triazin-4-amine], the IC50 lay in the range of 1 to 10 nM.

Turning to `O=C1NCCC1Nc1nnc(-c2ccc(C(F)(F)F)cc2C2CC2)c2cncn12` (stereo not drawn) [Compound 333, 3-({1-[2-cyclopropyl-4-(trifluoromethyl)phenyl]imidazo[1,5-d][1,2,4]triazin-4-yl}amino)pyrrolidin-2-one], the IC50 lay within 1 to 10 nM.

With `COc1ccc(-c2nnc(NC3CCNC3=O)n3cncc23)c(OC(F)F)c1` (stereo not drawn) [Compound 269, 3-({1-[2-(difluoromethoxy)-4-methoxyphenyl]imidazo[1,5-d][1,2,4]triazin-4-yl}amino)pyrrolidin-2-one], the IC50 lay within 1 to 10 nM.

As for `O[C@H]1CCOC[C@@H]1Nc1nnc(-c2ccc(C(F)(F)F)cc2C(F)(F)F)c2cncn12` [Compound 274, (3S,4S)-3-({1-[2,4-bis(trifluoromethyl)phenyl]imidazo[1,5-d][1,2,4]triazin-4-yl}amino)oxan-4-ol], the half-maximal inhibitory concentration (IC50) was in the range of 10 to 100 nM.

Consider `CCN1CCC[C@@H](Nc2nnc(-c3ccc(OC)cc3C(F)(F)F)c3cncn23)C1` [Compound 212, N-[(3R)-1-ethylpiperidin-3-yl]-1-[4-methoxy-2-(trifluoromethyl)phenyl]imidazo[1,5-d][1,2,4]triazin-4-amine], for which the IC50 was under 1 nM.

On to `COc1ccc(-c2nnc(N[C@H]3C[C@@](C)(O)C3)n3cncc23)c(C(F)(F)F)c1` [Compound 214, (1s,3s)-3-({1-[4-methoxy-2-(trifluoromethyl)phenyl]imidazo[1,5-d][1,2,4]triazin-4-yl}amino)-1-methylcyclobutan-1-ol], for which the IC50 fell in the range of 1 to 10 nM.

Consider `C[C@]1(O)C[C@@H](Nc2nnc(-c3ccc(Cl)cc3C(F)(F)F)c3cncn23)C1` [Compound 298, (1s,3s)-3-({1-[4-chloro-2-(trifluoromethyl)phenyl]imidazo[1,5-d][1,2,4]triazin-4-yl}amino)-1-methylcyclobutan-1-ol], for which the IC50 was in the range of 1 to 10 nM.

Turning to `CCN1C[C@H](F)C[C@@H](Nc2nnc(-c3ccc(C(F)(F)F)cc3C(F)(F)F)c3c(F)ccn23)C1` [Compound 32, 1-[2,4-bis(trifluoromethyl)phenyl]-N-[(3R,5R)-1-ethyl-5-fluoropiperidin-3-yl]-8-fluoropyrrolo[1,2-d][1,2,4]triazin-4-amine], the IC50 lay within 1 to 10 nM.

For the compound `CN1CCC[C@H](CNc2nnc(-c3ccc(C(F)(F)F)cc3CC(F)(F)F)c3cccn23)C1` [Compound 147, N-{[(3R)-1-methylpiperidin-3-yl]methyl}-1-[2-(2,2,2-trifluoroethyl)-4-(trifluoromethyl)phenyl]pyrrolo[1,2-d][1,2,4]triazin-4-amine], the IC50 was 1 to 10 nM.

On to `O[C@H]1CC[C@@H](Nc2nnc(-c3ccc(C(F)(F)F)cc3C(F)(F)F)c3cncn23)CC1` [Compound 275, (1s,4s)-4-({1-[2,4-bis(trifluoromethyl)phenyl]imidazo[1,5-d][1,2,4]triazin-4-yl}amino)cyclohexan-1-ol], for which the IC50 is 10 to 100 nM.

Regarding `C[C@]1(O)CCCC[C@@H]1Nc1nnc(-c2ccc(C(F)(F)F)cc2CC(F)(F)F)c2cncn12` (racemic) [Compound 283, (1S,2S)-1-methyl-2-({1-[2-(2,2,2-trifluoroethyl)-4-(trifluoromethyl)phenyl]imidazo[1,5-d][1,2,4]triazin-4-yl}amino)cyclohexan-1-ol AND (1R,2R)-1-methyl-2-({1-[2-(2,2,2-trifluoroethyl)-4-(trifluoromethyl)phenyl]imidazo[1,5-d][1,2,4]triazin-4-yl}amino)cyclohexan-1-ol], the IC50 is 1 to 10 nM.

`COc1ccc(-c2nnc(N[C@H]3C[C@](C)(CO)C3)n3cncc23)c(CC(F)(F)F)c1` [Compound 336, [(1r,3r)-3-({1-[4-methoxy-2-(2,2,2-trifluoroethyl)phenyl]imidazo[1,5-d][1,2,4]triazin-4-yl}amino)-1-methylcyclobutyl]methanol]: the IC50 lay in the range of 10 to 100 nM.

For `O[C@@H]1CCCCC[C@H]1Nc1nnc(-c2ccc(C(F)(F)F)cc2CC(F)(F)F)c2cccn12.O[C@H]1CCCCC[C@@H]1Nc1nnc(-c2ccc(C(F)(F)F)cc2CC(F)(F)F)c2cccn12` [Compound 127, (1R,2R)-2-({1-[2-(2,2,2-trifluoroethyl)-4-(trifluoromethyl)phenyl]pyrrolo[1,2-d][1,2,4]triazin-4-yl}amino)cycloheptan-1-ol AND (1S,2S)-2-({1-[2-(2,2,2-trifluoroethyl)-4-(trifluoromethyl)phenyl]pyrrolo[1,2-d][1,2,4]triazin-4-yl}amino)cycloheptan-1-ol], the IC50 was 10 to 100 nM.

As to `CN1CCC[C@@H](Nc2nnc(-c3ccc(C4CC4)cc3CC(F)(F)F)c3cncn23)C1` [Compound 352, 1-[4-cyclopropyl-2-(2,2,2-trifluoroethyl)phenyl]-N-[(3R)-1-methylpiperidin-3-yl]imidazo[1,5-d][1,2,4]triazin-4-amine], the IC50 was in the range of 1 to 10 nM.

Take `OCCN1CCC[C@@H](Nc2nnc(-c3ccc(C(F)(F)F)cc3OC(F)(F)F)c3cncn23)C1` [Compound 239, 2-[(3R)-3-({1-[2-(trifluoromethoxy)-4-(trifluoromethyl)phenyl]imidazo[1,5-d][1,2,4]triazin-4-yl}amino)piperidin-1-yl]ethan-1-ol]: the half-maximal inhibitory concentration (IC50) is under 1 nM.

For the compound `OCCN1CCC[C@@H](Nc2nnc(-c3ccc(OC(F)F)cc3OC(F)(F)F)c3cccn23)C1` [Compound 86, 2-[(3R)-3-({1-[4-(difluoromethoxy)-2-(trifluoromethoxy)phenyl]pyrrolo[1,2-d][1,2,4]triazin-4-yl}amino)piperidin-1-yl]ethan-1-ol], the IC50 was under 1 nM.

As to `CCN1CCC[C@@H](Nc2nnc(-c3ccc(C(F)(F)F)cc3F)c3cccn23)C1` [Compound 20, N-[(3R)-1-ethylpiperidin-3-yl]-1-[2-fluoro-4-(trifluoromethyl)phenyl]pyrrolo[1,2-d][1,2,4]triazin-4-amine], the IC50 was 1 to 10 nM.

In the case of `COc1ccc(-c2nnc(N[C@@H]3CCOC[C@H]3O)n3cncc23)c(CC(F)(F)F)c1` [Compound 249, (3S,4R)-4-({1-[4-methoxy-2-(2,2,2-trifluoroethyl)phenyl]imidazo[1,5-d][1,2,4]triazin-4-yl}amino)oxan-3-ol], the IC50 was 1 to 10 nM.

`CCN1CCC[C@@H](Nc2nnc(-c3ccc(OC)cc3C3CC3)c3cc(C)nn23)C1` [Compound 379, 4-(2-cyclopropyl-4-methoxyphenyl)-N-[(3R)-1-ethylpiperidin-3-yl]-2-methylpyrazolo[1,5-d][1,2,4]triazin-7-amine]: the IC50 fell in the range of 1 to 10 nM.

Turning to `COc1ccc(-c2nnc(N[C@@H]3CCOC[C@H]3O)n3nc(C)cc23)c(CC(F)(F)F)c1` [Compound 384, (3S,4R)-4-({4-[4-methoxy-2-(2,2,2-trifluoroethyl)phenyl]-2-methylpyrazolo[1,5-d][1,2,4]triazin-7-yl}amino)oxan-3-ol], the IC50 lay in the range of 1 to 10 nM.

As to `COc1ccc(-c2nnc(N[C@@H]3CCCN(C)C3)n3ccc(F)c23)c(OC(F)(F)F)c1` [Compound 39, 8-fluoro-1-[4-methoxy-2-(trifluoromethoxy)phenyl]-N-[(3R)-1-methylpiperidin-3-yl]pyrrolo[1,2-d][1,2,4]triazin-4-amine], the IC50 lay in the range of 1 to 10 nM.

`COc1ccc(-c2nnc(N[C@@H]3CCCC[C@H]3O)n3cncc23)c(C(F)(F)C(F)(F)F)c1` [Compound 316, (1R,2R)-2-({1-[4-methoxy-2-(pentafluoroethyl)phenyl]imidazo[1,5-d][1,2,4]triazin-4-yl}amino)cyclohexan-1-ol]: the IC50 fell in the range of 10 to 100 nM.

`COc1ccc(-c2nnc(N[C@@H]3CCCN(C)C3)n3cncc23)c(OC(F)(F)F)c1` [Compound 208, 1-[4-methoxy-2-(trifluoromethoxy)phenyl]-N-[(3R)-1-methylpiperidin-3-yl]imidazo[1,5-d][1,2,4]triazin-4-amine]: the IC50 is under 1 nM.

Take `CC(Nc1nnc(-c2ccc(C(F)(F)F)cc2OC(F)(F)F)c2cncn12)c1cccc(O)c1` (stereo not drawn) [Compound 323, 3-[1-({1-[2-(trifluoromethoxy)-4-(trifluoromethyl)phenyl]imidazo[1,5-d][1,2,4]triazin-4-yl}amino)ethyl]phenol]: the IC50 lay within 1 to 10 nM.
